pEC50: −log10 of the molar value.

The test system of test [1] is CEM/TK- (Homo sapiens). The experiment in a line: Cytotoxic concentration required to reduce viability of uninfected cells in CEM/TK cell line.
Test [2] concerns Human immunodeficiency virus 1. The test can be described thus: Effective concentration required to inhibit HIV-1 replication in CEM-SS cell line. Format: functional, organism-based. The following applies: Human immunodeficiency virus 1, CEM-SS.
For test [3], the system named is Human immunodeficiency virus 1. The experiment in a line: Effective concentration required to inhibit HIV-1 replication in CEM/TK cell line. Format: functional, organism-based. Particulars: Human immunodeficiency virus 1, CEM-TK(-).
The test system of test [4] is CEM-SS. The test can be described thus: Cytotoxic concentration required to reduce viability of uninfected cells in CEM-SS cell line. The following applies: Homo sapiens. Format: functional.
For test [5], the system named is MT4. The test can be described thus: Cytotoxic concentration required to reduce viability of uninfected cells in MT-4 cell line. Type of test: functional. The following applies: Homo sapiens.
In test [6] the test system is Human immunodeficiency virus 1. The experiment in a line: Effective concentration required to inhibit HIV-1 replication in MT-4 cell line. Format: functional, organism-based. Particulars: Human immunodeficiency virus 1, MT4.
For test [7], the system named is CEM-TK(-) (Homo sapiens). The test can be described thus: Compound was tested for its cytotoxic concentration required to reduce viability of uninfected cells in CEM/TK(-) cell line.

With `COC(=O)CNP(=O)(OCCSC(=O)C(C)(C)C)OCC1OC(n2cc(C)c(=O)[nH]c2=O)CC1N=[N+]=[N-]` (stereo not given), the CC50 in test [1], in test [4] and in test [5] was over 100000 nM throughout. Further, the pEC50 in test [2] was 8.05; in test [3] it was 5.85; in test [6], 6.35.
On to `COC(=O)[C@H](C)NP(=O)(OCCSC(=O)C(C)(C)C)OCC1OC(n2cc(C)c(=O)[nH]c2=O)CC1N=[N+]=[N-]` (stereo not given in full), for which the half-maximal cytotoxic concentration (CC50) in test [1], in test [4] and in test [5] was over 100000 nM throughout. The pEC50 in test [2] is 7.27; in test [3], 5.37; in test [6] it was 6.47.
As for `COC(=O)[C@H](COC(C)=O)NP(=O)(OCCSC(=O)C(C)(C)C)OCC1OC(n2cc(C)c(=O)[nH]c2=O)CC1N=[N+]=[N-]` (stereo not given in full), the CC50 in test [1], in test [4] and in test [5] was over 100000 nM throughout. Besides, the pEC50 in test [2] is 8.15; in test [3], 4.80; in test [6] it was 7.28.
With `Cc1cn(C2CC(N=[N+]=[N-])C(COP(=O)(OCCSC(=O)C(C)(C)C)N3CCCCC3)O2)c(=O)[nH]c1=O` (stereo not given), the CC50 in test [1], in test [4] and in test [5] was over 100000 nM each time. The pEC50 is 7.70 in test [2], 5.28 in test [3] and 6.66 in test [6].
Turning to `CCC(NP(=O)(OCCSC(=O)C(C)(C)C)OCC1OC(n2cc(C)c(=O)[nH]c2=O)CC1N=[N+]=[N-])C(=O)OC` (stereo not given), the CC50 in test [1], in test [4] and in test [5] was over 100000 nM throughout. Also, the pEC50 in test [2] was 8.22; in test [3] it was 5.62; in test [6] it was 6.89.
Take `COC(=O)[C@@H](C)NP(=O)(OCCSC(=O)C(C)(C)C)OCC1OC(n2cc(C)c(=O)[nH]c2=O)CC1N=[N+]=[N-]` (stereo not given in full): the CC50 in test [1], in test [4] and in test [5] was over 100000 nM throughout. The pEC50 in test [2] is 7.15; in test [3], 5.62; in test [6], 6.35.
For `COC(=O)[C@H](Cc1ccccc1)NP(=O)(OCCSC(=O)C(C)(C)C)OCC1OC(n2cc(C)c(=O)[nH]c2=O)CC1N=[N+]=[N-]` (stereo not given in full), the CC50 was over 10000 nM in test [1], over 100000 nM in test [4] and over 10000 nM in test [5]. In addition, the pEC50 in test [2] is 7.57; in test [3], 5.64; in test [6] it was 6.60.
Take `COC(=O)[C@H](Cc1ccc(O)cc1)NP(=O)(OCCSC(=O)C(C)(C)C)OCC1OC(n2cc(C)c(=O)[nH]c2=O)CC1N=[N+]=[N-]` (stereo not given in full): the CC50 in test [1], in test [4] and in test [5] was over 100000 nM throughout. Moreover, the pEC50 in test [2] is 7.05; in test [3], 5.28; in test [6] it was 6.13.
As to `COC(=O)[C@H](C)NP(=O)(OC[C@H]1O[C@@H](n2cc(C)c(=O)[nH]c2=O)C[C@@H]1N=[N+]=[N-])Oc1ccccc1` (stereo not given in full), the CC50 was over 100000 nM in test [1], over 100000 nM in test [4] and over 10000 nM in test [5]. In addition, the pEC50 in test [2] is 7.30; in test [3] it was 5.37; in test [6], 6.47.
For `COC(=O)C(C)NP(=O)(OCCSC(=O)C(C)(C)C)OCC1OC(n2cc(C)c(=O)[nH]c2=O)CC1N=[N+]=[N-]` (stereo not given), the CC50 in test [1], in test [4] and in test [5] was over 100000 nM throughout. Also, the negative-log EC50 (pEC50) in test [2] is 7.70; in test [3], 5.68; in test [6], 6.38.
`Cc1cn([C@H]2C[C@H](N=[N+]=[N-])[C@@H](CO)O2)c(=O)[nH]c1=O` [ZIDOVUDINE]: the CC50 in test [1] is over 100000 nM; in test [4] it was over 100000 nM; in test [5] it was 75000 nM. In addition, the pEC50 in test [2] is 8.22; in test [3] it was under 4.00; in test [6], 7.77.
`Cc1cn(C2CC(N=[N+]=[N-])C(COP(=O)(Nc3ccccc3)OCCSC(=O)C(C)(C)C)O2)c(=O)[nH]c1=O` (stereo not given): the half-maximal cytotoxic concentration (CC50) in test [1], in test [4] and in test [5] was over 10000 nM throughout. Besides, the pEC50 in test [2] was 8.30; in test [3], under 5.00; in test [6], 6.15.
On to `Cc1cn(C2CC(N=[N+]=[N-])C(COP(=O)(NC(C)C)OCCSC(=O)C(C)(C)C)O2)c(=O)[nH]c1=O` (stereo not given), for which the CC50 in test [1], in test [4] and in test [5] was over 100000 nM throughout. The pEC50 in test [2] was 7.70; in test [3], 6.12; in test [6], 6.89.
As to `COC(=O)[C@H](CO[Si](C)(C)C(C)(C)C)NP(=O)(OCCSC(=O)C(C)(C)C)OCC1OC(n2cc(C)c(=O)[nH]c2=O)CC1N=[N+]=[N-]` (stereo not given in full), the CC50 in test [1], in test [4] and in test [5] was over 10000 nM throughout. The pEC50 in test [2] is 7.00; in test [3], 6.00; in test [6] it was 6.40.
Turning to `COC(=O)C(C)(C)NP(=O)(OCCSC(=O)C(C)(C)C)OCC1OC(n2cc(C)c(=O)[nH]c2=O)CC1N=[N+]=[N-]` (stereo not given), the values for the pEC50 in test [2], in test [3] and in test [6] were 7.10, 5.54 and 6.27, respectively. Further, the CC50 in test [4], in test [5] and in test [7] was over 100000 nM throughout.

The record behind these values is ChEMBL document CHEMBL1145130, “S-acyl-2-thioethyl phosphoramidate diester derivatives as mononucleotide prodrugs” (J Med Chem, 2003).
